Holding throughout (assay type): cell-based
Experiment [1] deals with P. aeruginosa. In words: broth microdilution (BMD) susceptibility testing, strain from blood sample. Conditions: BMD testing method. As to the method:
(§1) The tests were conducted on various antibiotics that are currently used in testing organizations. […] The concentrations shown in FIG. 12 are expressed in μg/mL.
A general note: In broth dilution the organism is exposed to a series of concentrations in liquid medium.

Experiment [2] relates to P. aeruginosa ATCC 27853. In words: antibiotic susceptibility testing using the cell culture test device (DRAST), reference strain. The note with it: Pseudomonas aeruginosa, ATCC27853, observed until 6 h. From the text: (§2) Referring first to (a) of FIG. 4, a liquid medium containing a gelling agent is mixed with a biological agent to prepare a mixture solution as a first fluid. The liquid medium may include at least about 95% by weight of water and can be solidified due to the presence of the gelling agent. As the gelling agent, there may be exemplified agar, agarose, gelatin, alginate, collagen or fibrin. The use of agar or agarose is preferred. For example, agar may be used in an amount of 0.5 to 4% by weight in the liquid medium. The liquid medium usually requires no nutrients. In some examples, however, the liquid medium may include nutrients. The liquid medium may be a solution including a medium stimulating the division of particular cells.
(§3) Referring next to (b) of FIG. 4, the mixture solution is provided to a recess 421 formed at the bottom of a first sub-well. The mixture solution may be loaded in an amount corresponding to the volume of the recess of the first sub-well. The volume of the mixture solution loaded into the recess of the first sub-well is preferably from 10 μl to 200 μl, more preferably from 10 μl to 150 μl. If the volume of the mixture solution loaded into the first sub-well is less than the lower limit, the density of cells in the mixture solution is low, making it difficult to observe the cells. […]

The subject of experiment [3] is P. aeruginosa. In words: susceptibility testing using the cell culture test device (DRAST), strain from blood sample.
Description: as §2
(§4) Referring next to (b) of FIG. 4, the mixture solution is provided to a recess 421 formed at the bottom of a first sub-well. The mixture solution may be loaded in an amount corresponding to the volume of the recess of the first sub-well. The volume of the mixture solution loaded into the recess of the first sub-well is preferably from 10 μl to 200 μl, more preferably from 10 μl to 150 μl. If the volume of the mixture solution loaded into the first sub-well is less than the lower limit, the density of cells in the mixture solution is low, making it difficult to observe the cells. Meanwhile, if the volume of the mixture solution loaded into the first sub-well exceeds the upper limit, the mixture solution may overflow into a second sub-well beyond a barrier. […] The micropatterned groove also allows the mixture solution to be well fixed to the desired area. […] Referring to FIG. 5, a micropatterned groove 522 is formed in the well a sample to fix the sample to only the desired area.
(§5) A blood sample positive for bacterial infection is collected and diluted with a medium containing a gelling agent.
(§6) The mixture solution is solidified to form a solid thin film immobilized with the biological agent. When the temperature of the liquid medium drops, the medium is solidified, which restricts the mobility of the biological agent. This immobilization facilitates continuous observation of the motile biological agent.
(§7) As shown in (c) of FIG. 4, a second sub-well 430 including a bioactive agent in a solid form is provided with a solvent capable of dissolving the bioactive agent. When a bioactive agent is absent in the second sub-well 430, a solution containing a bioactive agent can be provided to the second sub-well 430. Herein, the bioactive agent may include a substance selected from antibiotics, anticancer agents, drugs such as immunosuppressants, nutrients, cellular secretions, signal transducers, viruses, cells, micro RNAs, proteins, antigens, antibodies, and DNA.

In experiment [4] the test system is E. faecalis ATCC 29212. In words: antibiotic susceptibility testing using the cell culture test device (DRAST), reference strain. The note with it: Enterococcus faecalis, ATCC29212, observed until 6 h.
Description: as §2, §3

The test system of experiment [5] is Enterobacter aerogenes. In words: broth microdilution (BMD) susceptibility testing, strain from blood sample. The note with it: E. aerogenes from blood sample; BMD testing method. As to the method: as §1
The subject of experiment [6] is Enterobacter aerogenes. Briefly: susceptibility testing using the cell culture test device (DRAST), strain from blood sample. Conditions: E. aerogenes from blood sample.
Description: as §2, §4, §5, §6, §7

The text below walks through data of patent US11377679B2, “Multi-well-based cell culture test device for rapid antibiotic susceptibility testing” (priority 2016, dated 2022).

Values after ≈ are worked out from the molar mass of the structure shown.

As usually defined, the MIC is the least concentration at which growth counts as inhibited. Read a low MIC as inhibition by little substance. In the case of `C[C@H]1[C@H](NC(=O)/C(=N\OC(C)(C)C(=O)O)c2csc(N)n2)C(=O)N1S(=O)(=O)O` [aztreonam], the susceptibility category entry is given as “I” in experiment [1] and “susceptible” in experiment [3]. This compound also gave an MIC in experiment [2] of 8 µg/mL (≈ 18.4 µM).
For `CO/N=C(\C(=O)N[C@@H]1C(=O)N2C(C(=O)O)=C(COC(C)=O)CS[C@H]12)c1csc(N)n1` [cefotaxime], the susceptibility category result in experiment [1] is “I”; in experiment [3], “susceptible”.
For `CN(C)[C@@H]1C(O)=C(C(N)=O)C(=O)[C@@]2(O)C(O)=C3C(=O)c4c(O)cccc4[C@@](C)(O)[C@H]3C[C@@H]12` [tetracycline], the MIC in experiment [4] worked out at 8 µg/mL (≈ 18 µM).
With `CC1(C)S[C@@H]2[C@H](NC(=O)[C@H](C(=O)O)c3ccsc3)C(=O)N2[C@H]1C(=O)O` [ticarcillin], the susceptibility category entry is “I” in experiment [1] and “susceptible” in experiment [3].
Consider colistin, for which the susceptibility category result in experiment [5] is listed as “S”; in experiment [1], “susceptible”; in experiment [6], “I”; in experiment [3], “I”.
